Experiments:
PC3MM cells = assay: Cell Proliferation Assay (Cell Titer Glo), PC3MM; type: cell-based; details: Cell Proliferation Assay, PC3MM; read-out: CPEC50 PC3MM
Experimental: IV. Cell Proliferation Assay Protocol:
A2780, PC-3, or PC3MM cells were seeded at 1000 cells/well in 100 μL/well (10.000 cells/mL) growth media in 96-well plates. Cells were allowed to adhere to the bottom of plates for 3-5 hours in a 37° C. 5% CO2 incubator. Compounds were dissolved in DMSO and then transferred to the cell plates. The cells were incubated with the compounds for 3 days in a 37° C. 5% CO2 incubator. The growth medium containing the compounds was then removed from the cells and fresh medium was added, followed by 100 μL of Cell Titer Glo assay reagent (Promega). This mixture was shaken for 1 minute and then incubated without shaking for 10 minutes. Activity determinations for the compounds were made by detection on a Trilux Instrument.

PDK1 kinase = target: T1, PDK1 kinase (Homo sapiens, UniProt O15530); assay: PDK1 Kinase Alpha Screen Assay; type: biochemical; details: PDK1 Kinase Alpha Screen Assay; read-out: PDK1 IC50
T1 sequence (O15530 1-556): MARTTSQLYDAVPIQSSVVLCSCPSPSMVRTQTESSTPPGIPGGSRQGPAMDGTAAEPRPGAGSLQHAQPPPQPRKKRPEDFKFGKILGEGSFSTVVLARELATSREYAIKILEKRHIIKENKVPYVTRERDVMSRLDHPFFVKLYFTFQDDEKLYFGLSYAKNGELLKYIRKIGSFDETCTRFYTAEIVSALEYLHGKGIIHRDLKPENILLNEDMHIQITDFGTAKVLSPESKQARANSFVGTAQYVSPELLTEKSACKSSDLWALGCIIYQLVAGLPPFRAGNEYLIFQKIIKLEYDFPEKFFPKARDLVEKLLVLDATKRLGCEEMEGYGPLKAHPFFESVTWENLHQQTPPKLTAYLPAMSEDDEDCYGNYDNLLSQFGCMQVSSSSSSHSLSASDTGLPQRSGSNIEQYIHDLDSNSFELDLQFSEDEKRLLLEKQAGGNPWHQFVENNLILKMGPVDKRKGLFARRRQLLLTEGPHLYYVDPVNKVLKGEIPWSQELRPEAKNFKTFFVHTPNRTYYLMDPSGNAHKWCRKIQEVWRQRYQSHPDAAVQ
In short: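 Compound in DMSO added to PDK1-4 peptide; PDK1/ATP mix starts reaction (final 50 nM peptide, 10 uM ATP). Runs 3-18 hours, stopped with 90 mM EDTA buffer. Antibody/bead mix added, developed overnight at room temperature, then AlphaScreen signal read.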

Compound | EC50 (PC3MM cells) [µM] | IC50 (PDK1 kinase) [µM]
CC(=O)Nc1cc(NC(C)=O)cc(Nc2ncc3ccc(OC4CCNCC4)cc3n2)c1 [Compound 658, N,N′-(5-(7-(piperidin-4-yloxy)quinazolin-2-ylamino)-1,3-phenylene)diacetamide] | 5 to 10 | < 5
NC(=O)c1cc(Nc2ncc3cc(-c4cn[nH]c4)cc(OC4CCNCC4)c3n2)cc(N2CCOCC2)c1 [Compound 663, 3-morpholino-5-(8-(piperidin-4-yloxy)-6-(1H-pyrazol-4-yl)quinazolin-2-ylamino)benzamide] | 5 to 10 | < 5
O=C(c1cc(Nc2ncc3cc(-c4cn[nH]c4)cc(OC4CCNCC4)c3n2)cc(N2CCOCC2)c1)N1CCOCC1 [Compound 664, morpholino(3-morpholino-5-(8-(piperidin-4-yloxy)-6-(1H-pyrazol-4-yl)quinazolin-2-ylamino)phenyl)methanone] | 5 to 10 | < 5
Cn1cc(-c2cc(Nc3ncc4cc(-c5cn[nH]c5)cc(OC5CCNCC5)c4n3)cc(C(N)=O)c2)cn1 [Compound 665, 3-(1-methyl-1H-pyrazol-4-yl)-5-(8-(piperidin-4-yloxy)-6-(1H-pyrazol-4-yl)quinazolin-2-ylamino)benzamide] | 5 to 10 | < 5
C#Cc1cc(OC2CCNCC2)c2nc(Nc3cc(C(N)=O)cc(N4CCOCC4)c3)ncc2c1 [Compound 666, 3-(6-ethynyl-8-(piperidin-4-yloxy)quinazolin-2-ylamino)-5-morpholinobenzamide] | 5 to 10 | < 5
NC(=O)c1cc(Nc2ncc3cc(Br)cc(OC4CCNCC4)c3n2)cc(N2CCOCC2)c1 [Compound 669, 3-(6-bromo-8-(piperidin-4-yloxy)quinazolin-2-ylamino)-5-morpholinobenzamide] | 5 to 10 | < 5
Cn1cc(-c2cc(Nc3ncc4cc(Br)cc(OC5CCNCC5)c4n3)cc(C(N)=O)c2)cn1 [Compound 671, 3-(6-bromo-8-(piperidin-4-yloxy)quinazolin-2-ylamino)-5-(1-methyl-1H-pyrazol-4-yl)benzamide] | < 5 | < 5
NC(=O)c1cc(Nc2ncc3cc(-c4nccs4)cc(OC4CCNCC4)c3n2)cc(N2CCOCC2)c1 [Compound 672, 3-morpholino-5-(8-(piperidin-4-yloxy)-6-(thiazol-2-yl)quinazolin-2-ylamino)benzamide] | 5 to 10 | < 5
Cn1cc(-c2cc(Nc3ncc4cc(-c5nccs5)cc(OC5CCNCC5)c4n3)cc(C(N)=O)c2)cn1 [Compound 673, 3-(1-methyl-1H-pyrazol-4-yl)-5-(8-(piperidin-4-yloxy)-6-(thiazol-2-yl)quinazolin-2-ylamino)benzamide] | 5 to 10 | < 5
NC(=O)c1cc(Nc2ncc3cc(-c4cn[nH]c4)c(OC4CCNCC4)cc3n2)cc(N2CCOCC2)c1 [Compound 674, 3-morpholino-5-(7-(piperidin-4-yloxy)-6-(1H-pyrazol-4-yl)quinazolin-2-ylamino)benzamide] | 5 to 10 | < 5
NC(=O)c1cc(Nc2ncc3cc(-c4nccs4)c(OC4CCNCC4)cc3n2)cc(N2CCOCC2)c1 [Compound 675, 3-morpholino-5-(7-(piperidin-4-yloxy)-6-(thiazol-2-yl)quinazolin-2-ylamino)benzamide] | 5 to 10 | < 5
COC(=O)Nc1cc(Nc2ncc3cc(-c4cn[nH]c4)c(OC4CCN(C)CC4)cc3n2)cc(-c2cn[nH]c2)c1 [Compound 676, methyl 3-(7-(1-methylpiperidin-4-yloxy)-6-(1H-pyrazol-4-yl)quinazolin-2-ylamino)-5-(1H-pyrazol-4-yl)phenylcarbamate] | < 5 | < 5

Further lines, results first:

EC50 (PC3MM cells) [µM] | IC50 (PDK1 kinase) [µM] | Compound
< 5 | < 5 | c1cc(N2CCOCC2)ccc1Nc1ncc2cc(-c3cn[nH]c3)c(OC3CCNCC3)cc2n1 [Compound 651, N-(4-morpholinophenyl)-7-(piperidin-4-yloxy)-6-(1H-pyrazol-4-yl)quinazolin-2-amine]
< 5 | < 5 | CN1CCC(Oc2cc3nc(Nc4ccc(N5CCOCC5)cc4)ncc3cc2-c2cn[nH]c2)CC1 [Compound 654, 7-(1-methylpiperidin-4-yloxy)-N-(4-morpholinophenyl)-6-(1H-pyrazol-4-yl)quinazolin-2-amine]
< 5 | < 5 | CN1CCC(Oc2ccc3cnc(Nc4ccc(N5CCOCC5)cc4)nc3c2)CC1 [Compound 655, 7-(1-methylpiperidin-4-yloxy)-N-(4-morpholinophenyl)quinazolin-2-amine]
< 5 | < 5 | COC(=O)Nc1cc(CN2CCOCC2)cc(Nc2ncc3cccc(OC4CCNCC4)c3n2)c1 [Compound 656, methyl 3-(morpholinomethyl)-5-(8-(piperidin-4-yloxy)quinazolin-2-ylamino)phenylcarbamate]
< 5 | < 5 | C#Cc1cc(OC2CCNCC2)c2nc(Nc3cc(NC(C)=O)cc(-c4cncnc4)c3)ncc2c1 [Compound 657, N-(3-(6-ethynyl-8-(piperidin-4-yloxy)quinazolin-2-ylamino)-5-(pyrimidin-5-yl)phenyl)acetamide]
< 5 | < 5 | CC(=O)Nc1cc(Nc2ncc3ccc(OC4CCNCC4)cc3n2)cc(-c2cn[nH]c2)c1 [Compound 659, N-(3-(7-(piperidin-4-yloxy)quinazolin-2-ylamino)-5-(1H-pyrazol-4-yl)phenyl)acetamide]
< 5 | < 5 | CN1CCC(Oc2ccc3cnc(Nc4cc(C(N)=O)cc(-c5cnn(C)c5)c4)nc3c2)CC1 [Compound 660, 3-(1-methyl-1H-pyrazol-4-yl)-5-(7-(1-methylpiperidin-4-yloxy)quinazolin-2-ylamino)benzamide]
< 5 | < 5 | COC(=O)Nc1cc(Nc2ncc3cc(-c4cn[nH]c4)c(OC4CCNCC4)cc3n2)cc(-c2cn[nH]c2)c1 [Compound 661, methyl 3-(7-(piperidin-4-yloxy)-6-(1H-pyrazol-4-yl)quinazolin-2-ylamino)-5-(1H-pyrazol-4-yl)phenylcarbamate]
< 5 | < 5 | COC(=O)Nc1cc(Nc2ncc3cc(-c4nccs4)c(OC4CCNCC4)cc3n2)cc(-c2cn[nH]c2)c1 [Compound 662, methyl 3-(7-(piperidin-4-yloxy)-6-(thiazol-2-yl)quinazolin-2-ylamino)-5-(1H-pyrazol-4-yl)phenylcarbamate]
< 5 | < 5 | C#Cc1cc(OC2CCNCC2)c2nc(Nc3cc(C(=O)N4CCOCC4)cc(N4CCOCC4)c3)ncc2c1 [Compound 667, (3-(6-ethynyl-8-(piperidin-4-yloxy)quinazolin-2-ylamino)-5-morpholinophenyl)(morpholino) methanone]
< 5 | < 5 | C#Cc1cc(OC2CCNCC2)c2nc(Nc3cc(C(N)=O)cc(-c4cnn(C)c4)c3)ncc2c1 [Compound 668, 3-(6-ethynyl-8-(piperidin-4-yloxy)quinazolin-2-ylamino)-5-(1-methyl-1H-pyrazol-4-yl)benzamide]
< 5 | < 5 | O=C(c1cc(Nc2ncc3cc(Br)cc(OC4CCNCC4)c3n2)cc(N2CCOCC2)c1)N1CCOCC1 [Compound 670, (3-(6-bromo-8-(piperidin-4-yloxy)quinazolin-2-ylamino)-5-morpholinophenyl)(morpholino) methanone]

— patent publication US7932262B2 (Novartis AG, priority 2006, dated 2011)
